“Also recorded” adds a separate entry of the source.
What was measured:
[1] = tested on: purified human Pan T-cells; assay: T-cell exhaustion protocol (repeated CD3/CD28 Dynabead stimulation); format: cell-based; details: ELISA, listed as RLS-0122
Protocol: Purified human pan-T-cells were subject to stimulation with Dynabeads every 48 hours over the period of 8 days with cells also receiving PIC1 peptides (2 mg/ml) at each stimulation. Cells not receiving Dynabeads were run in parallel to assess background levels of Caspase 3/7 signal. At the eighth day, cells were harvested, and the levels of Caspase 3/7 determined by ELISA.
Purified human pan-T-cells were subject to stimulation with Dynabeads every 48 hours over the period of 8 days with cells also receiving PIC1 peptides (2 mg/ml) at each stimulation. Cell supernatants were collected at each stimulation and levels of IL-2 and IFN-gamma assayed by ELISA.
T-cell exhaustion is a form of T-cell dysfunction that occurs in cancer. It is generally defined by poor effector function, reduction in cytokine release (e.g., IL-2, TNF-alpha, IFN-gamma), sustained expression of inhibitory receptors (e.g., PD-1, LAG-3, CD244, CD160) with the progressive loss of effector function due to overstimulation. Exhaustion can prevent optimal control of tumor growth. Exhausted T cells are prevalent in the tumor microenvironment (TME) and can lead to T-cell apoptosis. T-cell exhaustion is reversible and pharmaceutical inhibition of T-cell exhaustion has been considered a promising strategy by many cancer researchers. To ascertain if PIC1 peptides could reverse T-cell exhaustion and increase T cell viability and effector function, a T-cell exhaustion protocol was developed. To induce T-cell exhaustion, purified human Pan T-cells were stimulated with T-Activator CD3/CD28 Dynabeads and cells were washed and re-stimulated every 48 hours. PIC1 peptides were added to the cells after each stimulation with Dynabeads. After three to four stimulations, cells were harvested for readouts which consisted of assessing T-cell apoptosis by measuring Caspase 3/7 levels and production of cytokines IL-2 and IFN-gamma, which are indicative of T-cell functionality. […] To further evaluate if PIC1 peptides could restore T-cell functionality in cells that have undergone the exhaustion protocol, the inventors next assessed production of cytokines IL-2 and IFN-gamma. Supernatants from the cells after each stimulation was collected and the cytokines measured by ELISA. […] The lower level of IFN-gamma signal was consistently seen in this assay.

[2] = tested on: classical complement pathway activation (C1q with C1r and C1s from A-498 cells); assay: Classical complement activation by A-498 cell supernatant, C4a ELISA; format: biochemical, human; details: increasing doses 0-8 mg/ml; listed as RLS-0122
Protocol: Supernatants from A-498 cells were added to purified human C1q pre-incubated with increasing doses of RLS-0122 or RLS-0174 and loaded onto an IgG coated plate. Samples were then incubated for 1 hour at 37° C. After incubation samples were washed 3 times with PBS-T before the addition of purified human C4 (4 ug/ml) and incubated for 1.5 hours at 37° C. The supernatants were collected for analysis on Quidel's MicroVue Complement C4a ELISA.
Effective clear-cell renal cell carcinoma (ccRCC) therapies are needed, particularly at the metastatic stage when surgery is ineffective. Complement is a key factor in tissue inflammation, favoring cancer progression through the production of complement component 5a (C5a) (Roumenina et al., Cancer Immunol Res; 7(7) July 2019). Using data mining techniques, ccRCC has been identified as a cancer type expressing concomitantly high expression of the components that are part of the classical complement pathway. High densities of cells producing classical complement pathway components C1q and C4 and the presence of C4 activation fragment deposits in primary tumors are often correlated with poor prognosis. […] The inventors tested the ability of RLS-0122 to block complement activation in human kidney carcinoma cell line A498 system in vitro as assessed by the reduction in C4a levels. […]

[3] = target: T1, VEGF (Homo sapiens, UniProt P15692); assay: VEGF binding ELISA plate-based assay; details: peptides 1 mg/ml
T1 construct: Promega (bioassay)
T1 sequence (P15692 27-191 isoform P15692-4): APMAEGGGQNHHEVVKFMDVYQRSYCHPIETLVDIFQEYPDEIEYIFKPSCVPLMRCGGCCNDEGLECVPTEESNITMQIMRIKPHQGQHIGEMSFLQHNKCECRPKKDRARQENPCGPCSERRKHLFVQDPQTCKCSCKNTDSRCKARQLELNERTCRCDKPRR
Protocol: A fixed amount of PIC1 peptides (1 mg/ml) were added to the plates followed by a rabbit polyclonal antibody that recognizes the peptides and then a secondary anti-rabbit antibody conjugated with HRP. The plate was then developed by addition of TMB as the substrate for the colorimetric assay.
Angiogenesis, or the formation of new blood vessels from the established vasculature, is an essential element in tumor growth and metastasis formation. Inhibiting tumor angiogenesis is considered a major therapeutic strategy in oncology. […] The bioluminescent signal is detected in a luminometer.

[4] = peptides 2 mg/ml, stimulation 2

How did the “Caspase 3/7 levels, in words” value ([1]; peptides 2 mg/ml at each stimulation, day 8) turn out when “IAdLILEP(Sar)CCQERAA (IALILEPXCCQERAA; D-Leu; sarcosine; MOD_RES (3)..(3) D-amino acid; MOD_RES (8)..(8) Sarcosine) [PA-0122]” was run?
Its value is “very low to undetectable levels; also recorded: reduced levels”.

What about the “IFN-gamma levels in cell supernatants, in words” value [1, 4] of the same substance?
The value was “detectable at stimulation 2; also recorded: increased levels”.

And the “IL-2 levels in cell supernatants, in words” value [1, 4]?
The value was “detectable IL-2 at stimulation 2; also recorded: increased levels”.

And the “C4a generation, in words” value [2]?
Its value is “dose-dependently reduced the level of C4a generation; also recorded: can inhibit classical complement pathway activation”.

What about the “binding to VEGF, in words” value [3] of the same substance?
Its value is “binding with high affinity”.

— US20230303623A1, “PEPTIDES AND METHODS OF USE” (REALTA LIFE SCIENCES, INC., priority 2020, published 2023)
